Reference: ChEMBL document CHEMBL1137163, “Structure-activity relationships of potent and selective factor Xa inhibitors: benzimidazole derivatives with the side chain oriented to the prime site of factor Xa” (Bioorg Med Chem Lett, 2004)

How the values were obtained:
Coagulation factor X = Coagulation factor X (Homo sapiens, UniProt P00742); experiment: Inhibitory concentration against human Coagulation factor X
Prothrombin = Prothrombin (Homo sapiens, UniProt P00734); experiment: Inhibitory concentration against Coagulation factor II
Mus musculus = species on record: Mus musculus; experiment: Concentration required to produce 50% inhibition of tissue factor-induced platelet aggregation in disseminated intravascular coagulation (DIC) mouse model; type: functional

Chain of Coagulation factor X (P00742 41-179 limits assumed): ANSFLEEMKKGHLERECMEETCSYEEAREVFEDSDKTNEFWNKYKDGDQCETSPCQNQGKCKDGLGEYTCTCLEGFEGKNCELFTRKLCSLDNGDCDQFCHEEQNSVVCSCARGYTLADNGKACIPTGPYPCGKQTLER
Chain of Coagulation factor X (P00742 235-488 limits assumed): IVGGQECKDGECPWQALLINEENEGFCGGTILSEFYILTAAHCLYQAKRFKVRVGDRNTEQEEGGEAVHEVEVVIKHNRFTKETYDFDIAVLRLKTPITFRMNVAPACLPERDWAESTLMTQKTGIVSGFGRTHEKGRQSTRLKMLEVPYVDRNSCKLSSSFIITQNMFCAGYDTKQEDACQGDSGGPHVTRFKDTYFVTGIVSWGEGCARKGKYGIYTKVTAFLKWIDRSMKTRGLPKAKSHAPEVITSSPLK

IC50 (Coagulation factor X)	IC50 (Prothrombin)	Structure (SMILES)	ED50 (Mus musculus)
200 nM	> 10000 nM	CC(=N)N1CCC(Oc2ccc(N(Cc3nc4cc(C(=N)N)ccc4n3CC(=O)NC(C)(C)c3ccccc3)C(=O)c3ccc(C(=O)O)cc3)cc2)CC1	–
600 nM	> 10000 nM	CC(=N)N1CC[C@H](Oc2ccc(CCc3cc4cc(C(=N)N)ccc4o3)cc2)C1	–
–	–	CC(=N)N1CCC(Oc2ccc(N(Cc3nc4cc(C(=N)N)ccc4n3CC(=O)NC3CCCCC3)C(=O)c3ccc(C(=O)O)cc3)cc2)CC1.Cl.Cl	0.2 mg/kg
30 nM	> 10000 nM	CC(=N)N1CCC(Oc2ccc(OCc3nc4cc(C(=N)N)ccc4n3CC(=O)NC(C)c3ccccc3)cc2)CC1 (centres undefined)	–
6 nM	> 10000 nM	CC(=N)N1CCC(Oc2ccc(N(Cc3nc4cc(C(=N)N)ccc4n3CC(=O)NCc3ccc(Cl)c(Cl)c3)C(=O)c3ccc(C(=O)O)cc3)cc2)CC1.Cl.Cl	0.7 mg/kg
200 nM	> 10000 nM	CC(=N)N1CCC(Oc2ccc(N(Cc3nc4cc(C(=N)N)ccc4n3CC(=O)Nc3ccc(Cl)c(Cl)c3)C(=O)c3ccc(C(=O)O)cc3)cc2)CC1.Cl.Cl	0.7 mg/kg
300 nM	> 10000 nM	CC(=N)N1CCC(Oc2ccc(OCc3nc4cc(C(=N)N)ccc4n3CC(=O)NCC3CCCCC3)cc2)CC1	–
200 nM	> 10000 nM	CC(=N)N1CCC(Oc2ccc(OCc3nc4cc(C(=N)N)ccc4n3CC(=O)NCCCc3ccccc3)cc2)CC1	–
300 nM	> 10000 nM	N=C(N)c1ccc2c(c1)nc(CN(C(=O)c1ccc(C(=O)O)cc1)c1ccc(OC3CCNC3)cc1)n2CC(=O)NC1CCCCC1 (centres undefined)	–
30 nM	> 10000 nM	CC(=N)N1CCC(Oc2ccc(OCc3nc4cc(C(=N)N)ccc4n3CC(=O)NCc3ccc(Cl)c(Cl)c3)cc2)CC1	–
–	> 10000 nM	N=C(N)c1ccc2c(c1)nc(CN(C(=O)c1ccc(C(=O)O)cc1)c1ccc(OC3CCN(C(=N)NCc4ccccc4)CC3)cc1)n2CC(=O)NC1CCCCC1	–
100 nM	> 10000 nM	CC(=N)N1CCC(Oc2ccc(N(Cc3nc4cc(C(=N)N)ccc4n3CC(=O)NC3CCCCC3)C(=O)c3ccc(C(=O)O)cc3)cc2)C1 (centres undefined)	–
60 nM	> 10000 nM	CC(=N)N1CCC(Oc2ccc(OCc3nc4cc(C(=N)N)ccc4n3CC(=O)Nc3ccc(Cl)c(Cl)c3)cc2)CC1	–
3000 nM	> 10000 nM	CC(=N)N1CCC(Oc2ccc(OCc3nc4cc(C(=N)N)ccc4n3CC(=O)N3CCCCC3)cc2)CC1	–
40 nM	> 10000 nM	CC(=N)N1CCC(Oc2ccc(OCc3nc4cc(C(=N)N)ccc4n3CC(=O)NC3CCCCC3)cc2)CC1	–
400 nM	> 10000 nM	CCn1c(COc2ccc(OC3CCN(C(C)=N)CC3)cc2)nc2cc(C(=N)N)ccc21	–
2000 nM	> 10000 nM	N=C(N)c1ccc(Oc2ccc(N(Cc3nc4cc(C(=N)N)ccc4n3CC(=O)NC3CCCCC3)C(=O)c3ccc(C(=O)O)cc3)cc2)cc1	–
100 nM	> 10000 nM	CC(=N)N1CCC(Oc2ccc(OCc3nc4cc(C(=N)N)ccc4n3CC(=O)NCc3ccccc3)cc2)CC1	–
100 nM	> 10000 nM	CC(=N)N1CCC(Oc2ccc(OCc3nc4cc(C(=N)N)ccc4n3CC(=O)Nc3ccccc3)cc2)CC1	–
–	–	CC(=N)N1CC[C@H](Oc2ccc([C@H](Cc3ccc4ccc(C(=N)N)cc4c3)C(=O)O)cc2)C1.Cl [DX-9065A HYDROCHLORIDE HYDRATE]	0.5 mg/kg
